Here are results for one molecule from patent publication US12083109B2, “Neurokinin antagonists and uses thereof” (California Institute of Technology, priority 2017, dated 2024).

SMILES strings stand for the structures. Entries after “also recorded” stand apart in the source; their conditions may differ.

The assay concerns the target T1, Nk3R (Mus musculus, UniProt P47937).
T1 sequence (P47937 1-452): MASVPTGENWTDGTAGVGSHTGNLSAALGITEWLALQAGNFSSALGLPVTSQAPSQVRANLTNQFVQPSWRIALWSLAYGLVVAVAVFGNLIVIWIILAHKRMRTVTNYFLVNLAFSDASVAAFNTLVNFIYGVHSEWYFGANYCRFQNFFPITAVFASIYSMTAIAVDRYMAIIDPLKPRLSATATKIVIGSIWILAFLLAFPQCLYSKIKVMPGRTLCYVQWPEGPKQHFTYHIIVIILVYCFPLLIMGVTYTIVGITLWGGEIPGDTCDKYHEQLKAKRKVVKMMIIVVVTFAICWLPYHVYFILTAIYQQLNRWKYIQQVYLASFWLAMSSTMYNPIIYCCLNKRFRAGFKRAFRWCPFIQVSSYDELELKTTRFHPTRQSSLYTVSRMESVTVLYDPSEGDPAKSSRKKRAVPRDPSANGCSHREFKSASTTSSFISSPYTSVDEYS
The experiment in a line: Shock reactivity (footshock) after tone test, osanetant. The format is in vivo. Set-up: from tissue; host or cells: Living mice (wild-type C57Bl6/N males, Charles River). As for the experimental part:
The protocol for tone trace fear conditioning was performed as previously described (Cushman et al., 2014; incorporated by reference in its entirety) using fear conditioning boxes previously described in detail (Haubensak et al., 2010; Kunwar et al., 2015; incorporated by reference in their entirety). Briefly, mice were transported in squads of four on a white cart to a novel behavioral testing room containing 4 sound-attenuating fear-conditioning chambers (Med Associates). This “training context” was comprised of flat grid flooring (wired to a shock generator and scrambler for footshock delivery, Med Associates), houselights, and the presence of an internal fan for background noise. Chambers were sprayed with 70% Simple Green solution on the underlying chamber pan to generate a unique contextual scent and chambers were cleaned with 70% EtOH between squads. Trace fear conditioning consisted of a 3 minute baseline period followed by 3 tone-shock trials consisting of a 20 second tone conditional stimulus (CS; 75 dB, 2800 Hz), a 20 second trace interval and a 2 second footshock unconditional stimulus (US; 0.7 mA). The inter-trial interval (ITI) between trials was 60 seconds. Mice remained in the chambers an additional 60 seconds before being transported back to the vivarium. The following day, mice were transported in fresh cardboard boxes to a novel behavioral testing room consisting of 4 distinct fear-conditioning boxes to test for tone fear. The “test context” consisted of the houselights and fan turned off, uneven grid flooring, a 1% acetic acid scent and a black plastic insert used to generate a triangular roof. Testing was performed identical to training with the exception that shocks were omitted from test trials to allow for behavior assessment to the tone. A single shock was administered in the last minute of testing to assess activity burst responding to the shock. This allowed assessment of reactivity to the shock under our various manipulations performed during testing without disrupting fear acquisition by performing manipulations during training. All experimental manipulations and data shown herein were performed during the test phase of fear conditioning (training data not shown). Training and testing context were counterbalanced across mice. Freezing behavior during the baseline period as well as during each tone presentation (“during”) and trace interval (“post”) were assessed as previously described (Zelikowsky et al., 2014; incorporated by reference in its entirety) using automated near-infrared video tracking equipment and computer software (VideoFreeze, Med Associates). Shock reactivity (motion, arbitrary units) was measured during the 2 second shock US as well as the 3 seconds immediately following.
Mice were administered the Nk3R antagonist osanetant (Axon Medchem, Axon 1533) either systemically or intra-brain region. Osanctant was dissolved in saline with 0.1% Tween 20 (vehicle). […] For microinfusions, guide cannulas were removed from mice and replaced with injector cannulas (Plastics One), which protruded 0.5 mm from the tip of the guide cannula. Injectors were attached to 5 μl Hamilton syringes with PE tubing (Plastics One) and mounted on a microinfusion pump (Harvard Apparatus) for controlled infusion of osanetant (0.3 μl vehicle with 375 ng dose per site injected over 6 minutes). […]

Consider `CC(=O)N(C)C1(c2ccccc2)CCN(CCC[C@]2(c3ccc(Cl)c(Cl)c3)CCCN(C(=O)c3ccccc3)C2)CC1` [osanetant, N-(1-{3-[(3R)-1-benzoyl-3-(3,4-dichlorophenyl)piperidin-3-yl]propyl}-4-phenylpiperidin-4-yl)-N-methylacetamide], for which the “SIS-induced increased shock reactivity” value (SIS mice, osanetant 5 mg/kg i.p. 20 min before test) was “blocked”. Also, the “SIS-induced increase in shock reactivity” value (osanetant daily during two-week isolation, tested off-drug) is “a trend to protection; also recorded: reduced, but not significantly”. In addition, the “reactivity to footshock (SIS-enhanced)” value (osanetant injection into CeA) is reported as “reduced; also recorded: blocked”. Where the note is “osanetant microinfusion into DMH”, the “responses to the footshock” value is on record as “had no effect”. Moreover, the shock reactivity entry (osanetant microinfusion into dBNSTa) was “no effect”.
